Measured values from publication PMC4039119 (Oncotarget, 2014).
Read-outs that look alike come from different tables or passages of the source.

Experiments:
[1] = test system: normal human melanocyte epithelial (PIG1) cells; experiment: Sulforhodamine B cell survival assay in normal cells; type: cell-based; conditions: 50nM CuB for 72h
Protocol: The cells were fixed with ice cold 10% trichloroacetic acid, washed and stained with sulforhodamine B (SRB) dye and the optical density was measured in Tris base solution using plate reader, after washing the dye with 1% acetic acid solution as described by us previously. […]
vivo breast tumor growth suppression – Gupta et al
24, 48h and 72h. Cell survival was measured with sulforhodamine B assay to estimate the IC50 values. The ex periments were repeated at least three times with 4 replicates in each ex periment. B. Comparison of the cell survival of PIG1 and the breast cancer cell lines at 50nM […]
(1 picture or pasted object on this page, not shown here)

[2] = test system: MDA-MB-231, SKBR3, MCF-7 and 4T-1 breast cancer cells; experiment: Sulforhodamine B cell survival assay, range over the breast cancer cell panel; type: cell-based
Protocol: The cells were fixed with ice cold 10% trichloroacetic acid, washed and stained with sulforhodamine B (SRB) dye and the optical density was measured in Tris base solution using plate reader, after washing the dye with 1% acetic acid solution as described by us previously.

MCF-7 cells = experiment: Annexin V-FITC apoptosis assay; type: cell-based, human; conditions: MCF-7, 75nM CuB for 72h
Protocol: (§1) Apoptosis assay was performed using a kit (BD Biosciences, CA) according to manufacturer's instructions. Approximately, 0.1x10^6 cells were plated in 6-well plate and left overnight for attachment. […] A 5.0μl of Annexin V-FITC and 5μl of propidium iodide (BD Biosciences, San Jose, CA) were added to the 100μl of suspension and incubated for additional 20 min at room temperature in dark. Total sample volume was made up to 200μl with binding buffer. Samples were analyzed by flow cytometer after vortexing (Accuri C6, MI).

MDA-MB-231 cells = experiment: Annexin V-FITC apoptosis assay; type: cell-based, human; conditions: MDA-MB-231, 75nM CuB for 72h
Protocol: as §1

SKBR3 cells = experiment: Annexin V-FITC apoptosis assay; type: cell-based, human; conditions: SKBR3, 75nM CuB for 72h
Protocol: as §1

4T-1 cells = experiment: Annexin V-FITC apoptosis assay; type: cell-based, murine; conditions: 4T-1, 75nM CuB for 72h
Protocol: as §1

[3] = test system: MDA-MB-231 orthotopic tumors; experiment: Orthotopic breast tumor therapy model; type: in vivo, female athymic nude mice; conditions: 2mg/kg oral gavage every day
Protocol: Female athymic nude mice (4-6 weeks old) were obtained from Jackson Laboratories (Ban harbor, Maine, USA) and maintained under specific pathogen-free conditions. The use of athymic nude mice and their treatment was approved by the Institutional Animal Care and Use Committee (IACUC), Texas Tech University Health Sciences Center, and the experiments were conducted in strict compliance with the regulations. Mice were given antioxidant-free AIN-76A special diet (TestDiet, Richmond, IN) one week before starting the experiment. Exponentially growing MDA-MB-231 cells were harvested, washed and resuspended in PBS at a density of 50x10^6 cells per ml with 80% matrigel (BD Biosciences, San Jose, CA). A suspension of 0.1mL containing 5x10^6 cells was injected in the mammary fat pads of the recipient mice. Tumor volumes and animal weights were measured twice a week as described by us previously. When the tumors reached a size of about 50-80 mm^3, mice were randomly segregated into two groups with ten mice in each group. […] Mice were sacrificed on day 60 by CO2 overdose and death was confirmed by cervical dislocation in accordance with IACUC guidelines. The tumors were dissected out aseptically from each mouse, weighed and snap frozen in liquid-nitrogen for western blot analysis.

4T-1 orthotopic tumors = experiment: Orthotopic breast tumor therapy model; type: in vivo, female BALB/c mice; conditions: 1mg/kg i.p. every third day
Protocol: In another experiment, female BALB/c mice (4-6 weeks old) were obtained from Jackson Laboratories (Ban harbor, Maine, USA) and maintained under controlled humidity and temperature conditions. The use of BALB/c mice and their treatment was approved by the Institutional Animal Care and Use Committee (IACUC), Texas Tech University Health Sciences Center, and the experiments were conducted in strict compliance with the regulations. Exponentially growing 4T-1 cells were harvested, washed and re-suspended in PBS at a density of 1x10^6 cells per ml with 50% matrigel. A suspension of 0.1mL containing 0.1x10^6 cells was injected in the mammary fat pads of the recipient mice. Tumor volumes and animal weights were measured every alternate day as described by us previously. When the tumors reached a size of about 30-50 mm3, mice were randomly segregated into two groups with eight mice in each group. […] The control mice received vehicle alone. Mice were sacrificed on day 28 by CO2 overdose and death was confirmed by cervical dislocation in accordance with IACUC guidelines. The tumors were removed aseptically from each mouse, weighed and snap frozen in liquid-nitrogen for further analysis.

melanoma tumors = conditions: 1mg/kg intraperitoneal thrice a week, after 23 days; cited from earlier work
[4] = test system: non-small lung carcinoma tumor xenografts; conditions: 1mg/kg every alternate day for 5 weeks; cited from earlier work
[5] = test system: MDA-MB-231 orthotopic tumor; conditions: after 36 days, cited from earlier work
[6] = test system: ITGA6 in MDA-MB-231 cells; experiment: Western blot of ITGA6 expression after TGFβ treatment; type: cell-based, human
Protocol: (§2) Whole cell lysates were prepared using 4% (w/v) CHAPS buffer while tumor lysates were prepared by homogenizing the tumors in RIPA lysis buffer. Proteins from control and treated samples were subjected to SDS-PAGE and the segregated proteins were transferred to PVDF membrane. The membrane was developed as described by us previously. All antibodies used in the study were purchased from Cell signaling except HER2 (Abcam, Cambridge, MA), ITGB4 (Santacruz Biotechnology, Dallas, TX), TWIST (Santacruz Biotechnology, Dallas, TX), phospho Akt (S473) (Santacruz Biotechnology, Dallas, TX) and Caspase 3 (Santacruz Biotechnology, Dallas, TX).

ITGA6 in 4T-1 cells = experiment: as above; type: cell-based, murine
Protocol: as §2

Substance | growth inhibition of PIG1 cells [1] | growth inhibition of cancer cell lines SKBR3, MDA-MB-231, MCF-7 and 4-T1 ([2]; 50nM CuB for 72h) | IC50 ([2]; after 48 and 72 h of treatment) [nM] | apoptosis induced (cells) (MCF-7 cells) | apoptosis induced (cells) (MDA-MB-231 cells) | apoptosis induced (cells) (SKBR3 cells) | apoptosis induced (cells) (4T-1 cells) | tumor volume reduction as compared to control ([3]; day 60) [%] | tumor volume in treated group ([3]; day 60, n=10) [mm^3] | tumor weight less than control ([3]; tumors dissected at day 60) | tumor weight reduction (4T-1 orthotopic tumors; day 28) [%] | tumor volume in treated group (4T-1 orthotopic tumors; day 28, n=8) [mm^3] | suppression of tumor growth (melanoma tumors) | tumor volume reduction [4] [%] | tumor volume suppression ([5]; 0.5 mg/kg i.p.) [%] | tumor volume suppression ([5]; 1mg/kg i.p.) [%] | increase of ITGA6 expression [6] | increase of ITGA6 expression (ITGA6 in 4T-1 cells)
Cucurbitacin B [CuB] | 20-30% | 50-70% | 18 to 50 | about 60% | about 60% | about 80% | about 60% | 55 | 111.3±18.4 | about 53% | 27 | 1446.7±142.6 | about 50% | 70 | 42 | 55 | – | –
TGFβ | – | – | – | – | – | – | – | – | – | – | – | – | – | – | – | – | about 1.5 fold | about 1.5 fold
